Assay results published in US20120165319A1, “INHIBITORS OF INTERLEUKIN-1 BETA CONVERTING ENZYME” (VERTEX PHARMACEUTICALS INCORPORATED, priority 1995, published 2012).
pIC50, pKi: −log10 of the molar value. Read-outs that look alike come from different tables or passages of the source.

Key:
[1] = system: IL-1β, human whole blood; assay: Whole blood assay for IL-1β production; assay type: cell-based; settings: read-out: Whole human blood IC50
Protocol: The whole blood assay is a simple method for measuring the production of IL-1b (or other cytokines) and the activity of potential inhibitors. The complexity of this assay system, with its full complement of lymphoid and inflammatory cell types, spectrum of plasma proteins and red blood cells is an ideal in vitro representation of human in vivo physiologic conditions.
Pyrogen-free syringes (˜30 cc) Pyrogen-free sterile vacuum tubes containing lyophilized Na2EDTA (4.5 mg/10 ml tube) Human whole blood sample (˜30-50 cc) 1.5 ml eppendorf tubes Test compound stock solutions (˜25 mM in DMSO or other solvent) Endotoxin-free sodium chloride solution (0.9%) and HBSS Lipopolysaccharide (Sigma; Cat. # L-3012) stock solution at 1 mg/ml in HBSS
IL-1β ELISA Kit (R & D Systems; Cat # DLB50)
TNFα ELISA Kit (R & D Systems; Cat # DTA50)
Whole Blood Assay Experimental Procedure:
Set incubator or water bath at 30° C. Aliquot 0.25 ml of blood into 1.5 ml eppendorf tubes. Note: be sure to invert the whole blood sample tubes after every two aliquots. Differences in replicates may result if the cells sediment and are not uniformly suspended. Use of a positive displacement pipette will also minimize differences between replicate aliquots.
Prepare drug dilutions in sterile pyrogen-free saline by serial dilution. A dilution series which brackets the apparent Ki for a test compound determined in an ICE inhibition assay is generally used for the primary compound screen.
Add 25 μl test compound dilution or vehicle control and gently mix the sample. Then add 5.0 μl LPS solution (250 ng/ml stocked prepared fresh: 5.0 ng/ml final concentration LPS), and mix again. Incubate the tubes at 30° C. in a water bath for 16-18 hr with occasional mixing. Alternatively, the tubes can be placed in a rotator set at 4 rpm for the same incubation period. This assay should be set up in duplicate or triplicate with the following controls: negative control—no LPS; positive control—no test inhibitor; vehicle control—the highest concentration of DMSO or compound solvent used in the experiment. Additional saline is added to all control tubes to normalize volumes for both control and experimental whole blood test samples
After the incubation period, whole blood samples are centrifuged for 10 minutes at ˜2000 rpm in the microfuge, plasma is transferred to a fresh microfuge tube and centrifuged at 1000×g to pellet residual platelets if necessary. Plasma samples may be stored frozen at −70° C. prior to assay for cytokine levels by ELISA.
We have used R & D Systems (614 McKinley Place N.E. Minneapolis, Minn. 55413) Quantikine kits for measurement of IL-1β and TNF-α. The assays are performed according to the manufacturer's directions.
We have observed IL-1β levels of ˜1-5 ng/ml in positive controls among a range of individuals. A 1:200 dilution of plasma for all samples has been sufficient in our experiments for ELISA results to fall on the linear range of the ELISA standard curves. It may be necessary to optimize standard dilutions if you observe differences in the whole blood assay. Nerad, J. L. et al., J. Leukocyte Biol., 52, pp. 687-692 (1992).

[2] = system: IL-1β, human peripheral blood mononuclear cells (PBMC); assay: PBMC cell assay: IL-1β assay with human PBMC or enriched adherent mononuclear cells, LPS-stimulated; assay type: cell-based
Source text: IL-1β Assay with a Mixed Population of Human Peripheral Blood Mononuclear Cells (PBMC) or Enriched Adherent Mononuclear Cells
Processing of pre-IL-1β by ICE can be measured in cell culture using a variety of cell sources. Human PBMC obtained from healthy donors provides a mixed population of lymphocyte subtypes and mononuclear cells that produce a spectrum of interleukins and cytokines in response to many classes of physiological stimulators. Adherent mononuclear cells from PBMC provides an enriched source of normal monocytes for selective studies of cytokine production by activated cells.
An initial dilution series of test compound in DMSO or ethanol is prepared, with a subsequent dilution into RPMI-10% FBS media (containing 2 mM L-glutamine, 10 mM HEPES, 50 U and 50 ug/ml pen/strep) respectively to yield drugs at 4× the final test concentration containing 0.4% DMSO or 0.4% ethanol. The final concentration of DMSO is 0.1% for all drug dilutions. A concentration titration which brackets the apparent Ki for a test compound determined in an ICE inhibition assay is generally used for the primary compound screen.
Generally 5-6 compound dilutions are tested and the cellular component of the assay is performed in duplicate, with duplicate ELISA determinations on each cell culture supernatant.
PBMC Isolation and IL-1 Assay:
Buffy coat cells isolated from one pint human blood (yielding 40-45 ml final volume plasma plus cells) are diluted with media to 80 ml and LeukoPREP separation tubes (Becton Dickinson) are each overlaid with 10 ml of cell suspension. After 15 min centrifugation at 1500-1800×g, the plasma/media layer is aspirated and then the mononuclear cell layer is collected with a Pasteur pipette and transferred to a 15 ml conical centrifuge tube (Corning). Media is added to bring the volume to 15 ml, gently mix the cells by inversion and centrifuge at 300×g for 15 min. Resuspend the PBMC pellet in a small volume of media, count cells and adjust to 6×10^6 cells/ml.
For the cellular assay, 1.0 ml of the cell suspension is added to each well of a 24-well flat bottom tissue culture plate (Corning), 0.5 ml test compound dilution and 0.5 ml LPS solution (Sigma #L-3012; 20 ng/ml solution prepared in complete RPMI media; final LPS concentration 5 ng/ml). The 0.5 ml additions of test compound and LPS are usually sufficient to mix the contents of the wells. Three control mixtures are run per experiment, with either LPS alone, solvent vehicle control, and/or additional media to adjust the final culture volume to 2.0 ml. The cell cultures are incubated for 16-18 hr at 37° C. in the presence of 5% CO2.
At the end of the incubation period, cells are harvested and transferred to 15 ml conical centrifuge tubes. After centrifugation for 10 min at 200×g, supernatants are harvested and transferred to 1.5 ml Eppendorf tubes. It may be noted that the cell pellet may be utilized for a biochemical evaluation of pre-IL-1β and/or mature IL-1β content in cytosol extracts by western blotting or ELISA with pre-IL-1β specific antisera.
Isolation of Adherent Mononuclear Cells:
PBMC are isolated and prepared as described above. Media (1.0 ml) is first added to wells followed by 0.5 ml of the PBMC suspension. After a one hour incubation, plates are gently shaken and nonadherent cells aspirated from each well. Wells are then gently washed three times with 1.0 ml of media and final resuspended in 1.0 ml media. The enrichment for adherent cells generally yields 2.5−3.0×10^5 cells per well. The addition of test compounds, LPS, cell incubation conditions and processing of supernatants proceeds as described above.
We have used Quantikine kits (R&D Systems) for measurement of mature IL-1β. Assays are performed according to the manufacturer's directions. Mature IL-1β levels of about 1-3 ng/ml in both PBMC and adherent mononuclear cell positive controls are observed. […]

[3] = molecular target: T1, ICE (Homo sapiens, UniProt P29466); assay: Enzyme assay with UV-visible substrate (visible ICE assay, Succinyl-Tyr-Val-Ala-Asp-pNitroanilide); assay type: biochemical
T1 sequence (P29466 120-297 limits assumed): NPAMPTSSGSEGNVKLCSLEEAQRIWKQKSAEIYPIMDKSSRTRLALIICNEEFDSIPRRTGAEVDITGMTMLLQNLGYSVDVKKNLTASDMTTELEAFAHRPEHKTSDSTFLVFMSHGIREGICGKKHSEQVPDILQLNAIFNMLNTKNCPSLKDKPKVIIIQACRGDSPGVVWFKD
T1 sequence (P29466 317-404 limits assumed): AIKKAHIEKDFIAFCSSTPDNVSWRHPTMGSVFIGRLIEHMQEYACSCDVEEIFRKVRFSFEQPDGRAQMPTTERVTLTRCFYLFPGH
In short: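 ICE preincubated with inhibitor in DMSO for 15 min at room temperature, then Suc-Tyr-Val-Ala-Asp-pNA added. pNA release read at 405-603 nm for 20 min at 37 °C, rate from linear fit in mOD/min. Ki and inhibition mode from fits of rates at varying inhibitor concentrations to standard kinetic equations.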

[4] = Homo sapiens, * = values obtained upon reassay
[5] = Homo sapiens, PBMC, * = values obtained upon reassay
[6] = * = values obtained upon reassay

SMILES | pIC50 ([1]; Homo sapiens, Table 27) | pKi ([3]; Table 27) | further results
COc1cccc2oc(C(=O)[C@H](CC(=O)O)NC(=O)[C@@H]3CCCN4C(=O)CC[C@H](NC(=O)CCc5ccccc5)C(=O)N34)nc12 [Compound 135b] |  |  | pIC50 [1, 4]: 5.77; pIC50 [2, 5]: 5.80
O=C[C@H](CC(=O)O)NC(=O)[C@@H]1CCCN2C(=O)CC[C@H](NC(=O)c3cc(Cl)cc(Cl)c3)C(=O)N12 [Compound 214j, [3S(1S,9S)]3-(9-(3,5-Dichlorobenzoyl)amino-6,10-dioxo-1,2,3,4,7,8,9,10-octahydro-6H-pyridazino[1,2-a][1,2]diazepine-1-carboxamido)-4-oxobutanoic acid] |  |  | pIC50 ([1]; Homo sapiens, Table 17): 5.22; pKi ([3]; Table 17): 8.38; pIC50 ([2]; Homo sapiens, PBMC, Table 17): 5.60
O=C(O)CC(NC(=O)[C@@H]1CCCN2C(=O)CC[C@H](NC(=O)c3ccccc3)C(=O)N12)C(=O)COCc1ccccc1Cl (stereo partly drawn) [Compound 227e] |  |  | pIC50 [1, 4]: 6.26; pKi ([3]; Table 5): 8.15; pIC50 [2, 5]: 6.63
CC(=O)N[C@H]1CCC(=O)N2CCC[C@@H](C(=O)N[C@@H](CC(=O)O)C(=O)COc3cccnc3)N2C1=O [Compound 283d, [3S(1S,9S)]3-(9-Acetamido-6,10-dioxo-1,2,3,4,7,8,9,10-octahydro-6H-pyridazino[1,2-a][1,2]diazepine-1-carboxamido)-4-oxo-5-(3-pyridyloxy)pentanoic acid] |  |  | pIC50 ([1]; Homo sapiens, Table 17): 5.00; pIC50 ([2]; Homo sapiens, PBMC, Table 17): < 5.10
CC(C)(C)OC(=O)C[C@@H](C=NOCc1c(Cl)cccc1Cl)NC(=O)[C@@H]1CCCN2C(=O)CC[C@H](NC(=O)c3ccccc3)C(=O)N12 [Compound 307a, [3S(1S,9S)3-(9-Benzoylamino-6,10-dioxo-1,2,3,4,7,8,9,10-octahydro-6H-pyridazino-[1,2-a][1,2]diazapine-1-carboxamido)-amino]-4-oxobutanoicacid t-butyl ester, O-(2,6-dichlorophenylmethyl)oxime] |  |  | pIC50 [1, 6]: 4.80; pKi ([3]; Table 5): 7.26; pIC50 [2, 6]: 4.84
COc1ccccc1C(=O)N[C@H]1CCC(=O)N2CCC[C@@H](C(=O)N[C@H](C=O)CC(=O)O)N2C1=O [Compound 405] |  |  | pIC50 [1, 4]: 5.68; pKi ([3]; Table 5): 8.19; pIC50 [2, 5]: 5.77
O=C[C@H](CC(=O)O)NC(=O)[C@@H]1CCCN2C(=O)CC[C@H](NC(=O)c3ccccc3Cl)C(=O)N12 [Compound 406] |  |  | pIC50 [1, 4]: 5.64; pKi ([3]; Table 5): 8.40; pIC50 [2, 5]: 5.78
Cc1cc(C(=O)N[C@H]2CN(C(=O)COc3ccccc3)c3ccccc3N(CC(=O)N[C@H](C=O)CC(=O)O)C2=O)cc(C)c1O [Compound 721] | 5.30 | 8.89 | 
CCOC(=O)N1C[C@H](NC(=O)c2cc(C)c(O)c(C)c2)C(=O)N(CC(=O)N[C@H](C=O)CC(=O)O)c2ccccc21 [Compound 722] | 5.30 | 8.30 | 
COC(=O)N1C[C@H](NC(=O)c2cc(C)c(O)c(C)c2)C(=O)N(CC(=O)N[C@H](C=O)CC(=O)O)c2ccccc21 [Compound 723] | 5.70 | 8.64 | 
CCC(=O)N1C[C@H](NC(=O)c2cc(C)c(O)c(C)c2)C(=O)N(CC(=O)N[C@H](C=O)CC(=O)O)c2ccccc21 [Compound 724] | 5.74 | 8.70 | 
Cc1cc(C(=O)N[C@H]2CN(C(=O)C(C)C)c3ccccc3N(CC(=O)N[C@H](C=O)CC(=O)O)C2=O)cc(C)c1O [Compound 725] | 5.52 | 8.43 | 
Cc1cc(C(=O)N[C@H]2CNc3ccccc3N(CC(=O)N[C@H](C=O)CC(=O)O)C2=O)cc(C)c1O [Compound 727] | 5.64 | 7.30 | 
CCOC(=O)C(=O)N1C[C@H](NC(=O)c2cc(C)c(O)c(C)c2)C(=O)N(CC(=O)N[C@H](C=O)CC(=O)O)c2ccccc21 [Compound 729] | 5.55 | 7.55 | 
CC(=O)N[C@@H](CC(=O)O)C(=O)N[C@H]1CN(C(=O)CO)c2ccccc2N(CC(=O)N[C@H](C=O)CC(=O)O)C1=O [Compound 730] | 5.10 | 7.05 | 
COc1cc(C(=O)N[C@H]2CN(C(=O)CO)c3ccccc3N(CC(=O)N[C@H](C=O)CC(=O)O)C2=O)cc(OC)c1O [Compound 732] | 5.74 | 8.30 | 
COc1cc(C(=O)N[C@H]2CN(C(=O)CO)c3ccccc3N(CC(=O)N[C@H](C=O)CC(=O)O)C2=O)ccc1O [Compound 733] | 5.82 | 8.30 | 
O=C[C@H](CC(=O)O)NC(=O)CN1C(=O)[C@@H](NC(=O)c2nccc3ccccc23)CN(C(=O)Cc2cccnc2)c2ccccc21 [Compound 734] | 5.22 | 8.05 | 
CS(=O)(=O)CC(=O)N1C[C@H](NC(=O)c2nccc3ccccc23)C(=O)N(CC(=O)N[C@H](C=O)CC(=O)O)c2ccccc21 [Compound 735] | 5.00 | 8.22 | 
COc1c(Cl)cc(C(=O)N[C@H]2CN(C(=O)CO)c3ccccc3N(CC(=O)N[C@H](C=O)CC(=O)O)C2=O)cc1Cl [Compound 918] |  |  | pIC50 ([1]; Homo sapiens, Table 17): 5.94; pKi ([3]; Table 17): 8.15
